Values of other authors in patent publication US20150267258A1, “BIOMARKERS FOR DETERMINING EFFECTIVE RESPONSE OF TREATMENTS OF HEPATOCELLULAR CARCINOMA (HCC) PATIENTS” (BAYER PHARMA AKTIENGESELLSCHAFT, priority 2012, published 2015).

Key:
[1] = test system: metastatic colorectal cancer; settings: patients with metastatic colorectal cancer
[2] = test system: lung cancer

Structure (SMILES)	Overall survival [1]	Effectiveness in lung cancer [2]
CNC(=O)c1cc(Oc2ccc(NC(=O)Nc3ccc(Cl)c(C(F)(F)F)c3)c(F)c2)ccn1 [Regorafenib, 4-[4-({[4-Chloro-3-(trifluoromethyl)phenyl]carbamoyl}amino)-3-fluorophenoxy]-N-methylpyridine-2-carboxamide]	increase the overall survival	
CNC(=O)c1cc(Oc2ccc(NC(=O)Nc3ccc(Cl)c(C(F)(F)F)c3)cc2)ccn1 [Sorafenib, 4-[4-[[4-chloro-3-(trifluoromethyl)phenyl]carbamoylamino]phenoxy]-N-methyl-pyridine-2-carboxamide]		effective in lung cancer
